How the values were obtained:
[1] = biological target: T1, AR-VP16 (Homo sapiens, UniProt P10275); assay: AR-VP16 DNA Binding Assay, antagonist mode (HepG2 cells, 0.1 nM R1881); assay type: cell-based
T1 sequence (P10275 560-920 limits assumed): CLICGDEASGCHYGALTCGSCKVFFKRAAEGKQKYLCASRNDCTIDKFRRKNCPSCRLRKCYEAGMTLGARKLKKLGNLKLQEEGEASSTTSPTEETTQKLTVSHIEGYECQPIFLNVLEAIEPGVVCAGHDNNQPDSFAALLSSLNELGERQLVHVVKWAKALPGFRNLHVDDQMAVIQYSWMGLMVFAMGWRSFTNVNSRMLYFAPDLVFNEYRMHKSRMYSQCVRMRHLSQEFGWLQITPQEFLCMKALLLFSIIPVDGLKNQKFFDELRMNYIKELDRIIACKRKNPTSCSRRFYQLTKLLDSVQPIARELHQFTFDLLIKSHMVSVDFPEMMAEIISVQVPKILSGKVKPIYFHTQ
Method in brief: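 HepG2 cells transiently transfected with AR-VP16 (Lipofectin), incubated overnight, then treated with compound in RPMI with charcoal-stripped serum. Antagonist mode adds R1881 at 0.1 nM final. Cells lysed after 48 h incubation for read-out.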

[2] = biological target: T1, AR-VP16; assay: AR-VP16 DNA Binding Assay, agonist mode (HepG2 cells); assay type: cell-based; conditions: Emax >20x DMSO control = agonist

SMILES | IC50 [1] [nM] | ARVP16 DNA Binding Assay (Agonist mode): Agonist? [2]
COCCN(C)C(=O)c1ccc(N2C(=S)N(c3cnc(C#N)c(C(F)(F)F)c3)C(=O)C23CCC3)cc1F [Compound 250, 4-(7-(6-Cyano-5-(trifluoromethyl)pyridin-3-yl)-8-oxo-6-thioxo-5,7-diazaspiro[3.4]octan-5-yl)-2-fluoro-N-(2-methoxyethyl)-N-methylbenzamide] | > 1000 | No (Agonist defined as a compound whose Emax in the ARVP16 DNA Binding Assay (Agonist mode) is >20x DMSO control)
Cc1cc(N2C(=O)C3(CCC3)N(c3ccc(OC4CCSCC4)cc3)C2=S)cnc1C#N [Compound 195, 3-Methyl-5-(8-oxo-5-(4-((tetrahydro-2H-thiopyran-4-yl)oxy)phenyl)-6-thioxo-5,7-diazaspiro[3.4]octan-7-yl)picolinonitrile] | < 1000 | No (Agonist defined as a compound whose Emax in the ARVP16 DNA Binding Assay (Agonist mode) is >20x DMSO control)
CNC(=O)c1ccc(N2C(=S)N(c3ccc(C#N)n4nccc34)C(=O)C23CCC3)cc1F [Compound 83, 4-(7-(7-Cyanopyrazolo[1,5-a]pyridin-4-yl)-8-oxo-6-thioxo-5,7-diazaspiro[3.4]octan-5-yl)-2-fluoro-N-methylbenzamide] | > 1000 | No (Agonist defined as a compound whose Emax in the ARVP16 DNA Binding Assay (Agonist mode) is >20x DMSO control)
CN1CCN(CCOc2cc(N3C(=S)N(c4cnc(C#N)c(C(F)(F)F)c4)C(=O)C34CCC4)ccc2F)CC1 [Compound 166, 5-(5-(4-Fluoro-3-(2-(4-methylpiperazin-1-yl)ethoxy)phenyl)-8-oxo-6-thioxo-5,7-diazaspiro[3.4]octan-7-yl)-3-(trifluoromethyl)picolinonitrile] | > 1000 | No (Agonist defined as a compound whose Emax in the ARVP16 DNA Binding Assay (Agonist mode) is >20x DMSO control)
Cc1cc(N2C(=O)C3(CCC3)N(c3ccc(C(=O)Nc4ccccc4Cl)c(F)c3)C2=S)cnc1C#N [Compound 294, N-(2-Chlorophenyl)-4-(7-(6-cyano-5-methylpyridin-3-yl)-8-oxo-6-thioxo-5,7-diazaspiro[3.4]octan-5-yl)-2-fluorobenzamide] | < 1000 | No (Agonist defined as a compound whose Emax in the ARVP16 DNA Binding Assay (Agonist mode) is >20x DMSO control)
N#Cc1ncc(N2C(=O)C3(CCC3)N(c3cccc(F)c3)C2=S)cc1C(F)(F)F [Compound 27, 5-(5-(3-Fluorophenyl)-8-oxo-6-thioxo-5,7-diazaspiro[3.4]octan-7-yl)-3-(trifluoromethyl)picolinonitrile] | < 1000 | No (Agonist defined as a compound whose Emax in the ARVP16 DNA Binding Assay (Agonist mode) is >20x DMSO control)
COc1cc(N2C(=S)N(c3cnc(C#N)c(C(F)(F)F)c3)C(=O)C23CCC3)ccc1F [Compound 32, 5-(5-(4-fluoro-3-methoxyphenyl)-8-oxo-6-thioxo-5,7-diazaspiro[3.4]octan-7-yl)-3-(trifluoromethyl)picolinonitrile] | < 1000 | No (Agonist defined as a compound whose Emax in the ARVP16 DNA Binding Assay (Agonist mode) is >20x DMSO control)
CN(CCCNC(=O)c1ccc(N2C(=S)N(c3cnc(C#N)c(C(F)(F)F)c3)C(=O)C23CCC3)cc1F)C1CCCC1 [Compound 307, 4-(7-(6-Cyano-5-(trifluoromethyl)pyridin-3-yl)-8-oxo-6-thioxo-5,7-diazaspiro[3.4]octan-5-yl)-N-(3-(cyclopentyl(methyl)amino)propyl)-2-fluorobenzamide] | < 1000 | No (Agonist defined as a compound whose Emax in the ARVP16 DNA Binding Assay (Agonist mode) is >20x DMSO control)
Cc1ccccc1N1C(=S)N(c2cnc(C#N)c(C(F)(F)F)c2)C(=O)C12CCC2 [Compound 20, 5-(8-Oxo-6-thioxo-5-(o-tolyl)-5,7-diazaspiro[3.4]octan-7-yl)-3-(trifluoromethyl)picolinonitrile] | < 1000 | No (Agonist defined as a compound whose Emax in the ARVP16 DNA Binding Assay (Agonist mode) is >20x DMSO control)
N#Cc1ncc(N2C(=O)C3(CCC3)N(c3ccc(OCCc4cccc5ccccc45)c(F)c3)C2=S)cc1C(F)(F)F [Compound 140, 5-(5-(3-Fluoro-4-(2-(naphthalen-1-yl)ethoxy)phenyl)-8-oxo-6-thioxo-5,7-diazaspiro[3.4]octan-7-yl)-3-(trifluoromethyl)picolinonitrile] | > 1000 | No (Agonist defined as a compound whose Emax in the ARVP16 DNA Binding Assay (Agonist mode) is >20x DMSO control)
N#Cc1ncc(N2C(=O)C3(CCC3)N(c3ccc(F)c(O)c3)C2=S)cc1C(F)(F)F [Compound 123, 5-(5-(4-Fluoro-3-hydroxyphenyl)-8-oxo-6-thioxo-5,7-diazaspiro[3.4]octan-7-yl)-3-(trifluoromethyl)picolinonitrile] | > 1000 | No (Agonist defined as a compound whose Emax in the ARVP16 DNA Binding Assay (Agonist mode) is >20x DMSO control)
N#Cc1ncc(N2C(=O)C3(CCC3)N(c3ccc(C(=O)NCCN4CCCC4)c(F)c3)C2=S)cc1C(F)(F)F [Compound 234, 4-(7-(6-Cyano-5-(trifluoromethyl)pyridin-3-yl)-8-oxo-6-thioxo-5,7-diazaspiro[3.4]octan-5-yl)-2-fluoro-N-(2-(pyrrolidin-1-yl)ethyl)benzamide] | > 1000 | No (Agonist defined as a compound whose Emax in the ARVP16 DNA Binding Assay (Agonist mode) is >20x DMSO control)
Cc1cc(N2C(=O)C3(CCC3)N(c3ccc(O)cc3)C2=S)cnc1C#N [Compound 77, 5-(5-(4-hydroxyphenyl)-8-oxo-6-thioxo-5,7-diazaspiro[3.4]octan-7-yl)-3-methylpicolinonitrile] | > 1000 | No (Agonist defined as a compound whose Emax in the ARVP16 DNA Binding Assay (Agonist mode) is >20x DMSO control)
N#Cc1ncc(N2C(=O)C3(CCC3)N(c3ccc(F)cc3O)C2=S)cc1C(F)(F)F [Compound 38, 5-(5-(4-Fluoro-2-hydroxyphenyl)-8-oxo-6-thioxo-5,7-diazaspiro[3.4]octan-7-yl)-3-(trifluoromethyl)picolinonitrile] | > 1000 | No (Agonist defined as a compound whose Emax in the ARVP16 DNA Binding Assay (Agonist mode) is >20x DMSO control)
N#Cc1ncc(N2C(=O)C3(CCC3)N(c3cccc(-c4ccccc4)c3)C2=S)cc1C(F)(F)F [Compound 14, 5-(5-([1,1′-Biphenyl]-3-yl)-8-oxo-6-thioxo-5,7-diazaspiro[3.4]octan-7-yl)-3-(trifluoromethyl)picolinonitrile] | > 1000 | No (Agonist defined as a compound whose Emax in the ARVP16 DNA Binding Assay (Agonist mode) is >20x DMSO control)
CN1CCN(CCNC(=O)c2cc(N3C(=S)N(c4cnc(C#N)c(C(F)(F)F)c4)C(=O)C34CCC4)ccc2F)CC1 [Compound 254, 5-(7-(6-Cyano-5-(trifluoromethyl)pyridin-3-yl)-8-oxo-6-thioxo-5,7-diazaspiro[3.4]octan-5-yl)-2-fluoro-N-(2-(4-methylpiperazin-1-yl)ethyl)benzamide] | > 1000 | No (Agonist defined as a compound whose Emax in the ARVP16 DNA Binding Assay (Agonist mode) is >20x DMSO control)
Cc1cc(N2C(=O)C3(CCC3)N(c3ccc(OCCO)cc3)C2=S)cnc1C#N [Compound 223, 5-(5-(4-(2-Hydroxyethoxy)phenyl)-8-oxo-6-thioxo-5,7-diazaspiro[3.4]octan-7-yl)-3-methylpicolinonitrile] | < 1000 | No (Agonist defined as a compound whose Emax in the ARVP16 DNA Binding Assay (Agonist mode) is >20x DMSO control)
CCOC(=O)COc1ccc(N2C(=S)N(c3cnc(C#N)c(C(F)(F)F)c3)C(=O)C23CCC3)cc1F [Compound 132, Ethyl 2-(4-(7-(6-cyano-5-(trifluoromethyl)pyridin-3-yl)-8-oxo-6-thioxo-5,7-diazaspiro[3.4]octan-5-yl)-2-fluorophenoxy)acetate] | > 1000 | No (Agonist defined as a compound whose Emax in the ARVP16 DNA Binding Assay (Agonist mode) is >20x DMSO control)
N#Cc1ncc(N2C(=O)C3(CCC3)N(c3ccc(C(=O)Nc4ccccc4)c(F)c3)C2=S)cc1C(F)(F)F [Compound 255, 4-(7-(6-Cyano-5-(trifluoromethyl)pyridin-3-yl)-8-oxo-6-thioxo-5,7-diazaspiro[3.4]octan-5-yl)-2-fluoro-N-phenylbenzamide] | < 1000 | No (Agonist defined as a compound whose Emax in the ARVP16 DNA Binding Assay (Agonist mode) is >20x DMSO control)
CN1CCN(CCOc2ccc(N3C(=S)N(c4cnc(C#N)c(C(F)(F)F)c4)C(=O)C34CCC4)cc2)CC1 [Compound 178, 5-(5-(4-(2-(4-Methylpiperazin-1-yl)ethoxy)phenyl)-8-oxo-6-thioxo-5,7-diazaspiro[3.4]octan-7-yl)-3-(trifluoromethyl)picolinonitrile] | < 1000 | No (Agonist defined as a compound whose Emax in the ARVP16 DNA Binding Assay (Agonist mode) is >20x DMSO control)

Source: patent US9108944B2, “Androgen receptor modulators and uses thereof” (ARAGON PHARMACEUTICALS, INC., priority 2010, dated 2015)
